For 13 molecules, Activity, EC50 and selectivity ratio results are on record in ChEMBL document CHEMBL1158287, “Identification of ent-16 beta, 17-dihydroxykauran-19-oic acid as an anti-HIV principle and isolation of the new diterpenoids annosquamosins A and B from Annona squamosa” (J Nat Prod, 1996).

≈ marks a conversion by molar mass, not a printed value. Calls of active or inactive are those of the source. The rule behind the calls is not given here. Where only a bound is given, the exact number is not on record here.

The test system of data set [1] is Human immunodeficiency virus 1. Briefly: Antiviral activity against HIV1 3B replication in human H9 cells up to 100 ug/mL after 3 days by p24 antigen capture assay. Type of data set: functional, organism-based.
The test system of data set [2] is Human immunodeficiency virus 1. Briefly: Antiviral activity against HIV1 3B replication in human H9 cells after 3 days by p24 antigen capture assay. Type of data set: functional, organism-based. The following applies: Human immunodeficiency virus 1, 3B, H9, 72 h.
The nature of data set [3]: Therapeutic index, ratio of inhibition of human H9 cells to EC50 for HIV1 3B. Type of data set: cell-based.

Consider `C[C@@]12CCC[C@@](C)(O)[C@H]1CC[C@@]13C[C@H](CC[C@H]12)[C@](O)(CO)C3`, for which, in data set [1], the result was inactive.

Turning to `C[C@@]12CCC[C@@](C)(C=O)[C@H]1CC[C@]13C[C@@H](CO)[C@@H](CC[C@H]12)C3`, the outcome in data set [1] was inactive.

Regarding `C[C@@]12CCC[C@@](C)(C=O)[C@H]1CC[C@@]13C[C@@H](CC[C@H]12)[C@](O)(CO)C3`, in data set [1], the outcome was inactive.

For `C[C@@]12CCC[C@@](C)(C(=O)O)[C@H]1CC[C@@]13C[C@@H](CC[C@H]12)[C@](O)(CO)C3`, the concentration giving a half-maximal response (EC50) in data set [2] came out at 0.8 µg/mL (≈ 2.38 µM). In addition, the selectivity ratio in data set [3] was more than 5.

`C[C@@]1(CO)CCC[C@]2(C)[C@@H]1CC[C@@]13C[C@H](CC[C@H]12)[C@](O)(CO)C3`: the outcome in data set [1] was inactive.

Turning to `C=C1C[C@@]23CC[C@H]4[C@@](C)(CCC[C@@]4(C)C(=O)O)[C@@H]2CC[C@@H]1C3`, the result in data set [1] was inactive.

For the molecule `C[C@@]12CCC[C@@](C)(C(=O)O)[C@H]1CC[C@@]13C[C@H](CC[C@H]12)[C@@](O)(CO)C3`, the outcome in data set [1] was inactive.

For `CC(=O)OC[C@]1(O)C[C@@]23CC[C@H]4[C@@](C)(CCC[C@@]4(C)C=O)[C@@H]2CC[C@H]1C3`, the outcome in data set [1] was inactive.

As for `C[C@@]12CCC[C@@](C)(O)[C@H]1CC[C@@]13C[C@H](CC[C@H]12)[C@H](C(=O)O)C3`, in data set [1], the result was inactive.

Turning to `C[C@@]12CCC[C@@](C)(C(=O)O)[C@H]1CC[C@]13CC(CO)[C@@H](CC[C@H]12)C3` (mixture of isomers), the outcome in data set [1] was inactive.

Regarding `C[C@@]12CCC[C@@](C)(C=O)[C@H]1CC[C@@]13C[C@H](CC[C@H]12)[C@H](C(=O)O)C3`, the outcome in data set [1] was inactive.

Turning to `C=C1C[C@@]23CC[C@@H]4[C@](C)(CO)CCC[C@@]4(C)[C@@H]2CC[C@H]1C3`, the outcome in data set [1] was inactive.

As to `CC(=O)OC[C@@H]1C[C@@]23CC[C@H]4[C@@](C)(CCC[C@@]4(C)C(=O)O)[C@@H]2CC[C@H]1C3`, in data set [1], the result was inactive.

In general, EC50 refers to the concentration at which the effect is half-maximal. The low end stands for an effect from little substance, the high end for a need for much substance.
